# Article PMC5653814, “Regiospecific Synthesis of Ring A Fused Withaferin A Isoxazoline Analogues: Induction of Premature Senescence by W-2b in Proliferating Cancer Cells” (Scientific Reports, 2017)
# Read-outs that look alike come from different tables or passages of the source.
# Legend:
# MCF7 cells [1] = assay: MTT cell viability assay, MCF7; format: cell-based, human; conditions: read-out: Cytotoxicity IC50, MCF7
# Description: (§1) The cell viability assay was performed according to the procedure previously described with minor modifications. Briefly, MCF7, HCT-116 and fR2 cells were plated in 96 well plates at a density of 5 × 10^3 cells per well and incubated overnight. […] MTT dye solution (2.5 mg/mL) was introduced to the cells in medium 4 h before the completion of the treatment period and the formed formazan crystals were solubilized with DMSO. Optical density was measured with the help of a UV-visible spectrophotometer coupled with microplate reader (TECAN, Infinite M200 Pro), the percent inhibition was calculated and IC50 values were determined with the help of GraphPad Prism software (GraphPad software Inc. CA, USA).
# (§2) Data were expressed as the mean ± standard deviation of three independent experiments performed and analyzed by Student’s t-test. IC50 values were determined with the help of GraphPad Prism software Version 5.0 (GraphPad Software, Inc., USA) by taking the log of inhibitor vs. response. A 2-sided value of *P < 0.05 was considered significant in all cases.
# HCT-116 cells [2] = assay: MTT cell viability assay, HCT-116; format: cell-based, human; conditions: read-out: Cytotoxicity IC50, HCT-116
# Description: as §1, §2
# [3] = MTT cell viability assay, fR2 normal breast epithelial cells; format: cell-based, human; conditions: human, fR2 normal breast epithelial cells, read-out: Cytotoxicity IC50, fR2
# Description: as §1, §2
# fR2 cells [4] = assay: as above; format: cell-based, human; conditions: 48 h, read-out: Cytotoxicity IC50, fR2
# Description: as §1, §2
# MCF7 cells [5] = assay: SA-β-gal activity assay, MCF7; format: cell-based, human; conditions: MCF7, sub-toxic concentrations, five days
# Description: (§3) The procedure was followed as described previously with some modifications. Briefly, MCF7 and HCT-116 cells (0.4 × 10^6 per well) were seeded in six-well plates and treated with indicated concentrations of W-2b along with WA, vehicle and positive control doxorubicin for five days. Cells were accordingly washed twice with PBS, fixed with 4% paraformaldehyde for 5 min, rinsed twice with PBS and incubated with freshly prepared staining solution (40 mM citric acid/Na phosphate buffer, 5 mM K4[Fe(CN)6] 3H2O, 5 mM K3[Fe(CN)6], 150 mM sodium chloride, 2 mM magnesium chloride and 1 mg/ml X-gal in distilled water, pH 6.0) for 48 h at 37 °C. Stained cells were thoroughly washed and air dried in dark. Cells were then observed under bright field microscope (NIKON) for the SA-β-gal positive cells and images were captured at 20x magnification.
# HCT-116 cells [6] = assay: SA-β-gal activity assay, HCT-116; format: cell-based, human; conditions: HCT-116, sub-toxic concentrations, five days
# Description: as §3
# fR2 cells [7] = assay: SA-β-gal staining, fR2; format: cell-based, human; conditions: fR2, sub-toxic doses 1–2 µM
# MCF7 cells [8] = assay: Colony formation (clonogenic) assay, MCF7; format: cell-based; conditions: Homo sapiens, 120 h; MCF7, 1.0 µM, five days
# Description: (§4) The experiment was carried out according to the standardized protocol with some modifications. MCF7 and HCT-116 cells were trypsinized properly, seeded in 6 well plates at a density of 1 × 10^3 cells/well and incubated overnight. Then treatment was given to the cells with vehicle, doxorubicin and various concentrations of W-2b for five days. Cells were then washed, fixed with 4% paraformaldehyde for 10 min, rewashed twice and stained with 0.25% crystal violet solution for 1 h. The wells containing the cells were then washed thoroughly with distilled water to remove any extra stains and then air dried overnight. The plate was then observed under an inverted microscope and colonies from three random fields were counted, averaged and photographed with NIKON camera (D3100) at 4x magnification.
# HCT-116 cells [9] = assay: Colony formation (clonogenic) assay, HCT-116; format: cell-based; conditions: Homo sapiens, 120 h; HCT-116, 1.5 µM, five days
# Description: as §4
# MCF7 cells [10] = assay: Flow cytometric cell cycle analysis (propidium iodide), MCF7; format: cell-based, human; conditions: MCF7, 1.0 µM, 48 h; vehicle 13.03%
# Description: MCF7 cells were seeded at a density of 0.4 × 10^6 cells/well in 35 mm dishes and incubated overnight at 37 °C and 5% CO2. Next day, cells were treated with vehicle and W-2b at indicated concentrations for 48 h. They were then trypsinized, centrifuged at 2000 rpm for 3 min, washed twice with ice-cold PBS and fixed with ice-cold 70% ethanol (v/v) for 1 hour at 4 °C. Cells were then pelleted down at 2000 rpm for 3 min, washed with PBS and incubated first with 200 μg/ml of RNase A in PBS at 37 °C water bath for 90 min and then with 50 μg/mL of propidium iodide (PI) at room temperature for 30 min in dark. The samples were then analyzed by BD Accuri C6 flow cytometer (BD Biosciences).
# [11] = tested on: 4T1 mouse mammary carcinoma; assay: In vivo tumor growth, 4T1 mouse mammary carcinoma model; conditions: 25 mg/kg b.w. intraperitoneal
# Description: The experiment was performed according to the pre-standardized protocol with minor modifications. To evaluate the in vivo anti-tumor efficacy of W-2b, healthy female Balb/c mice (25–30 g) were taken. Animals were randomized into three groups, and six animals were taken per group. For the tumor cells implantation, mouse mammary carcinoma 4T1 cells (1 × 10^6 per 200 μL) diluted in serum-free RPMI medium were injected subcutaneously into the mammary pad of each mouse around the second right mammary gland. A week after tumor cell implantation, when the palpable mammary tumors develop, mice were injected intraperitoneally with either vehicle (normal saline) or 5-FU (25 mg/kg/b.w.) or W-2b (25 mg/kg/b.w.) in each alternative day for two weeks. Tumor sizes were measured in each alternate day after tumor cell injection, and the body weight was recorded once in a week. Mice were sacrificed on the 15th day after treatment initiation, and tumors were dissected out carefully from the mammary pad area.
smiles,measurement,setting,value
"CC1=C(CO)C(=O)OC(C(C)C2CCC3C4CC5OC56C(O)C5ON=C(c7ccc([N+](=O)[O-])cc7)C5C(=O)C6(C)C4CCC23C)C1 (stereo not drawn) [W-2b, 4-nitrophenyl-2-isoxazoline withaferin A]",IC50,MCF7 cells [1]; 48 h,705 ± 59 nM
same,IC50,"MCF7 cells [1]; Homo sapiens, MCF7, 24 h, 24 h",881 ± 52 nM
same,IC50,"MCF7 cells [1]; Homo sapiens, MCF7, 72 h, 72 h",682 ± 75 nM
same,IC50,HCT-116 cells [2]; 48 h,1250 ± 156 nM
same,IC50,"HCT-116 cells [2]; Homo sapiens, HCT-116, 24 h, 24 h",1480 ± 129 nM
same,IC50,"HCT-116 cells [2]; Homo sapiens, HCT-116, 72 h, 72 h",1030 ± 330 nM
same,IC50 at 24 h,[3]; 24 h,39.7 ± 7.3 µM
same,IC50 at 72 h,[3]; 72 h,33.9 ± 8.23 µM
same,IC50,fR2 cells [4],35.5 ± 6.12 µM
same,SA-β-gal positive cells,MCF7 cells [5],58%
same,SA-β-gal positive cells,HCT-116 cells [6],53%
same,SA-β-gal positive cells,fR2 cells [7],15–19%
same,inhibition at 1 µM,MCF7 cells [8],> 70%
same,inhibition at 1.5 µM,HCT-116 cells [9],> 70%
same,Cells in G2/M phase,MCF7 cells [10],45.5%
same,Inhibition in tumor volume,"[11]; each alternate day for two weeks, Balb/c mice",83.8%
same,Inhibition in tumor weight,"[11]; each alternate day for two weeks, vs normal saline group",91.2%
same,Tolerability of treated animals,[11]; two weeks,remained healthy without any serious side effects or mortality
